Patent US9131720B2, “High-potency sweetener composition with phytosterol and compositions sweetened therewith” (The Coca-Cola Company, priority 2005, dated 2015)

How the values were obtained:
[1] = Sensory evaluation of sweetness linger by a panel of experts; type: in vivo; conditions: for Sweetness linger rating: 3-4 min after water rinse; for Sweetness Linger rating defined for control samples: scale anchors of the protocol, sucrose, 500 ppm REBA control sample
Protocol: In a particular embodiment, a panel of assessors is used to measure the reduction of sweetness linger. Briefly described, a panel of assessors (generally 8 to 12 individuals) is trained to evaluate sweetness perception and measure sweetness at several time points from when the sample is initially taken into the mouth until 3 minutes after it has been expectorated. […] A decrease in score for a time point measured after the sample has cleared the mouth indicates there has been a reduction in sweetness perception.
The panel of assessors may be trained using procedures well known to those of ordinary skill in the art. In a particular embodiment, the panel of assessors may be trained using the Spectrum™ Descriptive Analysis Method (Meilgaard et al, Sensory Evaluation Techniques, 3rd edition, Chapter 11). Desirably, the focus of training should be the recognition of and the measure of the basic tastes; specifically, sweet. In order to ensure accuracy and reproducibility of results, each assessor should repeat the measure of the reduction of sweetness linger about three to about five times per sample, taking at least a five minute break between each repetition and/or sample and rinsing well with water to clear the mouth.
Generally, the method of measuring sweetness comprises taking a 10 mL sample into the mouth, holding the sample in the mouth for 5 seconds and gently swirling the sample in the mouth, rating the sweetness intensity perceived at 5 seconds, expectorating the sample (without swallowing following expectorating the sample), rinsing with one mouthful of water (e.g., vigorously moving water in mouth as if with mouth wash) and expectorating the rinse water, rating the sweetness intensity perceived immediately upon expectorating the rinse water, waiting 45 seconds and, while waling those 45 seconds, identifying the time of maximum perceived sweetness intensity and rating the sweetness intensity at that time (moving the mouth normally and swallowing as needed), rating the sweetness intensity after another 10 seconds, rating the sweetness intensity after another 60 seconds (cumulative 120 seconds after rinse), and rating the sweetness intensity after still another 60 seconds (cumulative 180 seconds after rinse). Between samples take a 5 minute break, rinsing well with water to clear the mouth.
Sensory evaluation of the samples prepared in Example Set G was carried out under the following protocol, similar to that described hereinabove. In this test protocol, none of the samples were swallowed. All samples were expectorated and the mouth was rinsed with water after the tasting. Immediately upon sensing maximal sweetness, the sample was expectorated, the mouth was rinsed with water and the rate of sweetness decay (“Sweetness Linger”) was measured, where attention was focused on the sweetness 3-4 min after the water rinse. After sample tasting was complete, a salty oyster cracker was chewed followed by a water rinse, and at least 5 minutes followed before tasting the next sample. The sweetness linger was rated by a panel of experts in the sensory evaluation of foods and beverages using the following scale: 0=no sweetness linger, 1=very slight sweetness linger, 2=slight sweetness linger, 3 moderate sweetness linger, 4=moderately high sweetness linger, 5=high sweetness linger.
The “Sweetness Linger” rating for sucrose observed by this protocol is defined as 0. The Sweetness Linger of a 500 ppm of REBA control sample is defined as 5. […]

[2] = Rate of dissolution in H2O at 25° C. of rebaudioside A polymorphs; type: physicochemical
[3] = type: physicochemical
Protocol: A solution of rebaudioside A (>97% pure by HPLC) was prepared in double distilled water (12.5 gm in 50 mL, 25% concentration) by stirring the mixture at 40° C. for 5 minutes. An amorphous rebaudioside A polymorph was formed by immediately using the clear solution for spray drying with the Lab-Plant spray drier SD-04 instrument (Lab-Plant Ltd., West Yorkshire, U.K.). The solution was fed through the feed pump into the nozzle atomizer which atomized it into a spray of droplets with the help of a constant flow of nitrogen/air. […] This dry powder (11-12 g, H2O 6.74%) was discharged continuously from the drying chamber and was collected in a bottle.

[4] = 500 ppm REBA (H41: 360 ppm) in carbon-treated water with phosphoric acid (75%), pH 2.4-2.5, scale 0=no to 5=high sweetness linger

| Rate of dissolution in H2O at 25° C. [2] | Solubility in water at room temperature [3] [%] | Molecule | Sweetness linger rating [1, 4] | Sweetness Linger rating defined for control samples [1] | Sweetness linger rating ([1]; 400 ppm REBA in citric acid/potassium citrate composition equivalent to diet lemon-lime beverage, scale 0=no, 1=very slight, 2=slight, 3=moderate, 4=moderately high, 5=high sweetness linger) |
| --- | --- | --- | --- | --- | --- |
|  |  | OC[C@H]1O[C@@](CO)(O[C@H]2O[C@H](CO)[C@@H](O)[C@H](O)[C@H]2O)[C@@H](O)[C@@H]1O [sugar, sucrose] | 0 | 0 |  |
|  |  | rebaudioside A | 5 | 5 | 5 |
| (>35.0%/ %/5 minutes | > 35.0 | rebaudioside A [Form 4] |  |  |  |
